Publication PMC10907465 (Inflammopharmacology, 2023)
Read-outs that look alike come from different tables or passages of the source.

Assays:
Format in all cases: in vivo, rat
SOD = assay: LPS-induced ALI in rats: pulmonary SOD; conditions: lung tissue
Method: (§1) Thirty-five free pathogenic Sprague–Dawley male albino rats (100–120 g) were obtained from the Egyptian Drug Authority (EDA) animal house. Randomly, the animals were divided into seven groups, (each 5 rats) as follows: Group I: normal control group, Group II: positive control group on the 7th day only received LPS (Lipopolysaccharides) at a dose of 10 mg/kg bw. i.p. suspended in sterile saline solution 0.9% (Ijinu et al. [2022]), Group III dexamethasone positive control (5 mg/kg i.p.) (Murillo-Cuesta et al. [2023]) for 7 days followed by LPS single inflammatory dose model (10 mg/kg b. w i.p.). On the 7th day, 1 h after the last dexamethasone dose. […] All animals were anesthetized to obtain blood in heparinized capillary tubes for pro-inflammatory cytokines (TNF-α, IL-1, IL-6, and MPO) ELISA examination in addition to lung tissues for determination of antioxidant enzymes (SOD, Catalase, GSH and MDA), real-time PCR (p38.MAPK14 and CY450P2E1), western blot (NF-κB p65), histological lung tissue scoring and immunohistochemistry examination (TGF-β1).

IL-6 = assay: LPS-induced ALI in rats: IL-6 ELISA
Method: as §1
(§2) Rat TNF-α (Catalog No: MBS2507393 96 T/48 T/24 T), IL-6 (Catalog No: MBS355410), IL-1β (Catalog no. MBS825017), MPO (Catalog No. MBS2019590) ELISA kits were obtained from MyBiosource, San Diego, USA.

GSH = assay: LPS-induced ALI in rats: pulmonary GSH; conditions: lung tissue
Method: as §1

IL-1β = assay: LPS-induced ALI in rats: IL-1β ELISA
Method: as §1, §2

lung tissues = assay: LPS-induced ALI in rats: H&E histopathology and histological scoring of pulmonary inflammation; conditions: for Proportion of airspace area: airspace area / total area of one view, 400×; for Incidence of congestion / Incidence of hemorrhage / Severity of neutrophil infiltration: lung H&E
Method: as §1
Lung tissues were collected and fixed in 10% neutral buffered formaldehyde for 24 h to stabilize and fix tissue proteins. Dehydration, clearing, and paraffin infiltration and embedding were performed, and then wax blocks were sectioned by microtome into 5 µ sections and stained with Hematoxylin and Eosin Stain. Hematoxylin staining was performed according Ehrlich's Hematoxylin (Ehrlich [1886]) and eosin staining was done according to Avwioro ([2011]). Anti-Transforming Growth Factor-β (TGF-β) antibody immunohistochemistry stain (Arigo Biolaboratories, ARG 56429) was also performed, and Immuno-histochemical staining was performed according to Bajracharya et al. ([2017]). The same position of the lungs in five […] was observed through a microscope, and the histological lesion of the lung was evaluated through the incidence of congestion, inflammation, and hemorrhage, severity scoring of neutrophil infiltrates, and proportion of airspace areas. The level of severity was judged from – to +++, representing none to severe. The airspace proportion is the ratio of the airspace area and the total area of one view under 400 × magnifications (Wang et al. [2018]). According to Xue et al. ([2011]) & Ai-Li Huang et al. ([2014]): the semi-quantitative criterion for TGF-β1 staining intensity was estimated using a four-tiered scoring system: negative (−), no staining at all; weak (+), weak staining regardless of positive cell percentages or moderate staining of ≤ 30% of cells; moderate (++), moderate staining of > 30% of cells or strong staining of ≤ 50% of cells; strong (+++), strong staining of > 50% of cells. Low expression of TGF-β1 was defined as (-) or ( +), and High expression was defined as (++) or (+++).

TGF-β1 = conditions: rats
Method: (§3) Thirty-five free pathogenic Sprague–Dawley male albino rats (100–120 g) were obtained from the Egyptian Drug Authority (EDA) animal house. Randomly, the animals were divided into seven groups, (each 5 rats) as follows: Group I: normal control group, Group II: positive control group on the 7th day only received LPS (Lipopolysaccharides) at a dose of 10 mg/kg bw. i.p. suspended in sterile saline solution 0.9% (Ijinu et al. [2022]), Group III dexamethasone positive control (5 mg/kg i.p.) (Murillo-Cuesta et al. [2023]) for 7 days followed by LPS single inflammatory dose model (10 mg/kg b. w i.p.). On the 7th day, 1 h after the last dexamethasone dose. […]
Lung tissues were collected and fixed in 10% neutral buffered formaldehyde for 24 h to stabilize and fix tissue proteins. […] The same position of the lungs in five mice was observed through a microscope, and the histological lesion of the lung was evaluated through the incidence of congestion, inflammation, and hemorrhage, severity scoring of neutrophil infiltrates, and proportion of airspace areas. […]

CY450P2E1 = assay: LPS-induced ALI in rats: real-time PCR of CY450P2E1 gene in lung; conditions: lung tissue
Method: as §3
(§4) Primers were utilized in a 25- µl reaction containing 12.5 µl of the 2 × QuantiTect SYBR Green PCR Master Mix (StrateGene® MX3005P, Qiagen, Germany), 0.25 µl of Revert Aid reverse transcriptase (200 U/µL) (Thermo Fisher, Germany), 0.5 µl of each primer of 20 pmol concentration, 8.25 µl of water, and 3 µl of RNA template. […] Amplification curves and Ct values were determined by the Strata gene MX3005P software, version 3 (Agilent, California, USA). […]

MDA = assay: LPS-induced ALI in rats: pulmonary MDA; conditions: lung tissue
Method: as §1

MPO = conditions: ELISA, rats
Method: as §1, §2

TNF-α = conditions: ELISA, rats
Method: as §1, §2

P38.MAPK14 = assay: LPS-induced ALI in rats: real-time PCR of P38 MAPK gene in lung; conditions: lung tissue
Method: as §3, §4

NF-κB p65 = conditions: western blot, lung, relative band intensity (ratio of AU to internal control), rats
Method: as §3
Samples were separated on a polyacrylamide gel; the procedure was abbreviated as SDS-PAGE, or Sodium Dodecyl Sulfate Polyacrylamide Gel Electrophoresis, a standard technique for separating proteins according to their molecular weight. […] Imaging and data analysis quantitation: The chemiluminescent substrate (Clarity TM Western ECL substrate, Bio-Rad cat# 170-5060) was applied to the blot according to the manufacturer’s recommendation.

Catalase = assay: LPS-induced ALI in rats: pulmonary catalase; conditions: lung tissue
Method: as §1

[1] = dexamethasone 5 mg/kg i.p. 7 days + LPS 10 mg/kg i.p.

For C[C@@H]1C[C@H]2[C@@H]3CCC4=CC(=O)C=C[C@]4(C)[C@@]3(F)[C@@H](O)C[C@]2(C)[C@@]1(O)C(=O)CO [Dexamethasone, dexamethasone], the SOD (SOD; [1]) was 0.8047 ± 0.041^*b, the IL-6 (IL-6; [1]) was 58.87 ± 1.38^***b and the GSH (GSH; [1]) was 1.174 ± 0.1565^**b. The IL-β1 (IL-1β; [1]) was 48.77 ± 1.995^***b, the “Proportion of airspace area” value (lung tissues; [1]) was 4.89% and the “H&E histological examination of lung tissue (finding in words)” value (lung tissues; [1]) was “collapsed alveoli in some areas, while other areas showed emphysema”. For the same molecule, the Incidence of congestion (lung tissues; [1]) was 4/8, the Incidence of hemorrhage (lung tissues; [1]) was 1/8 and the “Severity of neutrophil infiltration” value (lung tissues; [1]) was “++”. The “TGF-β1 immunohistochemical expression in lung” value (TGF-β1; [1]) was “+ +”, the “CY450P2E1 Fold change” value (CY450P2E1; [1]) was 5.345 ± 0.3346^***b Fold change and the MDA (MDA; [1]) was 20.69 ± 2.49^***b. For the same molecule, the MPO (MPO; [1]) was 45.50 ± 2.926^***b, the TNF-α (TNF-α; [1]) was 91.27 ± 1.940^***b and the “P38 MAPK Fold change” value (P38.MAPK14; [1]) was 3.585 ± 0.2314^***b Fold change. For the same molecule, the Nf-ĸB (NF-κB p65; [1]) was 3.907 ± 0.048 and the Catalase (Catalase; [1]) was 0.098 ± 0.006^*b.
Lipopolysaccharide [LPS] was tested, and the SOD (SOD; LPS 10 mg/kg i.p. only) was 0.4713 ± 0.041^*a, the IL-6 (IL-6; LPS 10 mg/kg i.p. only) was 126.1 ± 3.75^***a and the GSH (GSH; LPS 10 mg/kg i.p. only) was 0.4737 ± 0.038^*a. For the same molecule, the IL-β1 (IL-1β; LPS 10 mg/kg i.p. only) was 112.2 ± 3.143^***a, the “H&E histological examination of lung tissue (finding in words)” value (lung tissues; LPS 10 mg/kg i.p. only) was “collapsed alveoli in some areas, while other areas showed emphysema” and the “Proportion of airspace area” value (lung tissues; LPS 10 mg/kg i.p. only) was 2.66%. For the same molecule, the Incidence of congestion (lung tissues; LPS 10 mg/kg i.p. only) was 5/8, the Incidence of hemorrhage (lung tissues; LPS 10 mg/kg i.p. only) was 2/8 and the “Severity of neutrophil infiltration” value (lung tissues; LPS 10 mg/kg i.p. only) was “++++”. The “TGF-β1 immunohistochemical expression in lung” value (TGF-β1; LPS 10 mg/kg i.p. only) was “+ +”, the “CY450P2E1 Fold change” value (CY450P2E1; LPS 10 mg/kg i.p. only) was 12.68 ± 0.2038^***a Fold change and the MDA (MDA; LPS 10 mg/kg i.p. only) was 42.15 ± 0.800^***a. The MPO (MPO; LPS 10 mg/kg i.p. only) was 102.4 ± 3.496^***a, the TNF-α (TNF-α; LPS 10 mg/kg i.p. only) was 157.0 ± 4.917^***a and the “P38 MAPK Fold change” value (P38.MAPK14; LPS 10 mg/kg i.p. only) was 9.682 ± 0.1741^***a Fold change. For the same molecule, the Nf-ĸB (NF-κB p65; LPS 10 mg/kg i.p. only) was 3.973 ± 0.014^***a and the Catalase (Catalase; LPS 10 mg/kg i.p. only) was 0.2153 ± 0.001^*a.
